Values quoted from earlier work as cited in patent US6358944B1, “Methods and compositions for treating generalized anxiety disorder” (Vela Pharmaceuticals, Inc., priority 1999, dated 2002).

CN(C)CCC=C1c2ccccc2C=Cc2ccccc21 [cyclobenzaprine, 3-(5H-Dibenzo[a,d]cyclohepten-5-ylidene)-N,N-dimethyl-1-propanamine]
other less common side effects (cyclobenzaprine treatment): nausea, tiredness, constipation, blurred vision, nervousness, confusion, abdominal pain and discomfort | principal side effects (cyclobenzaprine treatment): drowsiness, dry mouth or tongue, dizziness and bad taste | organ toxicity (cyclobenzaprine-treated patients at recommended doses): No indications of organ toxicity were found | toxic effects after overdose (three individuals who ingested between 260 to 900 mg): Toxic effects were reported
